Among the test systems are Malme-3M; NCI-H23; RXF 393; OVCAR-8; SF-295; RPMI-8226; SF-539; SW-620; SNB-19; 786-0; IGROV-1; TK-10; KM12; SN12C; SNB-75; SF-268.
Common to all, as to experiment: growth of human tumour cells (NCI), 48 h

Several values for one entry are separate records, joined by “and”; a condition that tells them apart may be missing. Equal entries are not always repeated.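 A five-concentration, 48-hour dose response in 96-well plates underlies each endpoint, interpolated linearly between surrounding concentrations. GI50 is the concentration that inhibits growth by half.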 Activity calls are given as the source filed them. Rule as the data show it: active = GI50 up to about 1.1 µM and inactive = higher. Bounds are passed on as bounds.

On to `COC1(OC)C2(Cl)C3=CCCC=C3C1(Cl)C(Cl)=C2Cl`, for which the GI50 in the test with Malme-3M was 16.7 µM (inactive); in the test with NCI-H23, 21.9 µM (inactive); in the test with RXF 393, 13.9 µM (inactive); in the test on OVCAR-8, 32.2 µM (inactive); in the test on SF-295 it was 25.1 µM (inactive); with RPMI-8226, 12.1 µM (inactive). The GI50 in the test on SF-539 was 29 µM (inactive); with SW-620, 17.5 µM (inactive); with SNB-19 it was 26.1 µM (inactive); in the test with 786-0 it was 27.4 µM (inactive); in the test on IGROV-1, 36.5 µM (inactive); with TK-10, > 100 µM (inactive). For the same molecule, the GI50 in the test on KM12 is 34.3 µM (inactive); in the test on SN12C, 28.7 µM (inactive); in the test with SNB-75, 23.3 µM (inactive); in the test on SF-268, 27.4 µM (inactive).
As to `COc1ccc(OC(C)C(=O)O)c2c1CCCC2=O` (configuration not stated), the GI50 in the test on Malme-3M, in the test with NCI-H23, in the test with RXF 393, in the test on OVCAR-8, with SF-295 and in the test on RPMI-8226 was > 100 µM (inactive) in each case. The GI50 in the test on SF-539, in the test with SW-620, in the test with SNB-19, in the test with 786-0, in the test with IGROV-1 and in the test on TK-10 was > 100 µM (inactive) in each case. Besides, the GI50 in the test on KM12, in the test on SN12C, in the test on SNB-75 and with SF-268 was > 100 µM (inactive) in each case.
With `COc1ccc(-c2c(C3=NCCN3)nnn2-c2ccccc2)cc1`, the GI50 in the test on Malme-3M, in the test on NCI-H23, with RXF 393, with OVCAR-8, in the test with SF-295 and in the test with RPMI-8226 was > 100 µM (inactive) throughout. For the same molecule, the GI50 in the test on SF-539, with SW-620, in the test on SNB-19, in the test with 786-0, with IGROV-1 and in the test with TK-10 was > 100 µM (inactive) each time. Besides, the GI50 is > 100 µM (inactive) with KM12, > 100 µM (inactive) in the test with SN12C, 98.9 µM (inactive) in the test on SNB-75 and > 100 µM (inactive) in the test on SF-268.
For the molecule `CC1=NN(C(=O)CC(=O)Nc2cccc(Cl)c2)C(=O)C1/N=N/c1ccc(S(N)(=O)=O)cc1` (configuration not stated), the GI50 in the test on Malme-3M, with NCI-H23, in the test on RXF 393, in the test on OVCAR-8, in the test with SF-295 and with RPMI-8226 was > 100 µM (inactive) throughout. Further, the GI50 in the test with SF-539, in the test on SW-620, in the test on SNB-19, in the test with 786-0, in the test on IGROV-1 and in the test with TK-10 was > 100 µM (inactive) in each case. For the same molecule, the GI50 in the test on KM12, in the test on SN12C, in the test with SNB-75 and in the test on SF-268 was > 100 µM (inactive) each time.
As to `CCCCCCC(=O)CC(=O)C(=O)Nc1ccccc1C`, the GI50 with Malme-3M, in the test with NCI-H23, in the test on RXF 393, in the test with OVCAR-8, with SF-295 and in the test on RPMI-8226 was > 100 µM (inactive) each time. For the same molecule, the GI50 is > 100 µM (inactive) in the test on SF-539; > 39.7 µM (inactive) in the test on SW-620; > 100 µM (inactive) with SNB-19; > 55.5 µM (inactive) with 786-0; > 100 µM (inactive) in the test on IGROV-1; > 100 µM (inactive) in the test on TK-10. For the same molecule, the GI50 with KM12 is > 100 µM (inactive); with SN12C it was > 100 µM (inactive); in the test with SNB-75 it was > 100 µM (inactive); in the test with SF-268, > 65.6 µM (inactive).
Take `O=[N+]([O-])c1ccc(-n2nnc(C3=NCCN3)c2-c2ccc(Cl)cc2)cc1`: the GI50 in the test on Malme-3M is > 100 µM (inactive); in the test with NCI-H23, > 100 µM (inactive); with RXF 393, 93.3 µM (inactive); in the test on OVCAR-8, > 100 µM (inactive); in the test on SF-295 it was > 100 µM (inactive); with RPMI-8226 it was > 100 µM (inactive). Further, the GI50 in the test with SF-539 was > 100 µM (inactive); in the test on SW-620 it was > 100 µM (inactive); in the test with SNB-19 it was > 100 µM (inactive); in the test on 786-0 it was > 100 µM (inactive); in the test on IGROV-1, > 100 µM (inactive); with TK-10, 69 µM (inactive). Besides, the GI50 in the test with KM12 is > 100 µM (inactive); in the test on SN12C, > 100 µM (inactive); with SNB-75, 83.6 µM (inactive); in the test with SF-268, 73.3 µM (inactive).
For the molecule `Cc1ccc(S(=O)(=O)ON=C2CC(c3ccccc3)N(C)C(c3ccccc3)C2)cc1` (configuration not stated), the GI50 was 25.5 µM (inactive) and 21.1 µM (inactive) in the test on Malme-3M; 25.2 µM (inactive) and 19.9 µM (inactive) in the test with NCI-H23; 20.2 µM (inactive) and 18.8 µM (inactive) with RXF 393; 17.6 µM (inactive) and 16.9 µM (inactive) in the test with OVCAR-8; 25.9 µM (inactive) and 25.1 µM (inactive) with SF-295; 18.3 µM (inactive) with RPMI-8226. Moreover, the GI50 with SF-539 is 17.1 µM (inactive); in the test on SW-620 it was 17.9 µM (inactive) and 15.5 µM (inactive); in the test on SNB-19, 25.8 µM (inactive) and 32.7 µM (inactive); in the test with 786-0, 21.2 µM (inactive) and 22.9 µM (inactive); in the test with IGROV-1, 23.5 µM (inactive) and 21.4 µM (inactive); in the test on TK-10, 21.8 µM (inactive) and 20.6 µM (inactive). Also, the GI50 is 16.4 µM (inactive) with KM12; 23.6 µM (inactive) in the test with SN12C; 23.6 µM (inactive) and 26 µM (inactive) in the test with SNB-75; 22.8 µM (inactive) and 23.4 µM (inactive) in the test with SF-268.
For the molecule `COC(C(=O)NCCCCNC(=O)C(OC)c1ccccc1)c1ccccc1` (configuration not stated), the GI50 in the test on Malme-3M, in the test on NCI-H23, in the test with RXF 393, with OVCAR-8, with SF-295 and in the test on RPMI-8226 was > 100 µM (inactive) in each case. Further, the GI50 in the test on SF-539, in the test with SW-620, in the test on SNB-19, in the test on 786-0, with IGROV-1 and with TK-10 was > 100 µM (inactive) throughout. The GI50 with KM12, with SN12C, in the test with SNB-75 and with SF-268 was > 100 µM (inactive) throughout.
For the molecule `COc1ccc(C(=O)CC(=O)C(=O)Nc2ccc(C)c(C)c2)cc1`, the GI50 is > 100 µM (inactive) in the test with Malme-3M; > 100 µM (inactive) with NCI-H23; > 54.5 µM (inactive) in the test on RXF 393; > 100 µM (inactive) in the test with OVCAR-8; > 100 µM (inactive) with SF-295; > 47.5 µM (inactive) in the test on RPMI-8226. Besides, the GI50 in the test with SF-539 is > 100 µM (inactive); with SW-620, 28.4 µM (inactive); in the test with SNB-19 it was > 100 µM (inactive); in the test with 786-0, > 69 µM (inactive); in the test with IGROV-1, > 93.3 µM (inactive); with TK-10 it was > 100 µM (inactive). For the same molecule, the GI50 in the test with KM12 was > 100 µM (inactive); with SN12C it was > 91.6 µM (inactive); in the test with SNB-75, 11.3 µM (inactive); in the test on SF-268, 56.2 µM (inactive).
On to `CN(C)/C(=N/C(=S)Nc1ccccc1)SCc1ccccc1`, for which the GI50 with Malme-3M was 40.2 µM (inactive); in the test on NCI-H23 it was 40.9 µM (inactive); in the test on RXF 393 it was 27.7 µM (inactive); in the test on OVCAR-8 it was 56.4 µM (inactive); in the test on SF-295 it was 42.9 µM (inactive); in the test on RPMI-8226, 10.3 µM (inactive). Moreover, the GI50 was > 100 µM (inactive) in the test on SF-539; > 100 µM (inactive) in the test with SW-620; 40.3 µM (inactive) in the test with SNB-19; 56.1 µM (inactive) in the test on 786-0; 74.3 µM (inactive) in the test with IGROV-1; > 100 µM (inactive) in the test with TK-10. For the same molecule, the GI50 in the test with KM12 was 7.23 µM (inactive); in the test on SN12C it was 66.2 µM (inactive); in the test on SNB-75, 30.3 µM (inactive); with SF-268 it was 48.3 µM (inactive).
As to `CC(=O)NC1C(OCc2ccccc2)OC(COC(=O)CCCCCNc2ccc([N+](=O)[O-])c3[nH]c4ccc(O)cc4c(=O)c23)C(O)C1OC(C)C(=O)N[C@@H](C)C(=O)N[C@H](CCC(=O)OCc1ccccc1)C(N)=O` (some centres not stated), the GI50 in the test with Malme-3M is 1.32 µM (inactive); in the test on NCI-H23, 1.35 µM (inactive); in the test with RXF 393, 1.6 µM (inactive); in the test on OVCAR-8 it was 1.64 µM (inactive); in the test on SF-295, 3.08 µM (inactive); in the test on RPMI-8226, 0.506 µM (active). In addition, the GI50 with SF-539 is 3.4 µM (inactive); with SW-620, 0.465 µM (active); with SNB-19 it was 3 µM (inactive); in the test on 786-0 it was 1.86 µM (inactive); in the test with IGROV-1 it was 7.24 µM (inactive); with TK-10, 3.06 µM (inactive). The GI50 with KM12 was 1.39 µM (inactive); in the test with SN12C, 6.59 µM (inactive); with SNB-75 it was 4.13 µM (inactive); in the test on SF-268, 2.31 µM (inactive).
As to `CCc1ccccc1NC(=O)C1=C(C)NC(C)=C(C(=O)Nc2ccccc2CC)C1c1ccc(NC(C)=O)cc1`, the GI50 in the test on Malme-3M was 49.1 µM (inactive); in the test on NCI-H23 it was 42.7 µM (inactive); in the test on RXF 393, 17.4 µM (inactive); in the test with OVCAR-8, 33.9 µM (inactive); in the test on SF-295, 54.7 µM (inactive); with RPMI-8226, 17 µM (inactive). Moreover, the GI50 with SF-539 was 25.9 µM (inactive); with SW-620, 41.2 µM (inactive); in the test on SNB-19, 92.7 µM (inactive); with 786-0, 37.8 µM (inactive); with IGROV-1, 28.4 µM (inactive); in the test with TK-10, > 100 µM (inactive). Further, the GI50 in the test with KM12 is 28.1 µM (inactive); with SN12C, 29.8 µM (inactive); in the test with SNB-75, 21.4 µM (inactive); in the test on SF-268, 38.1 µM (inactive).

Values taken from ChEMBL document CHEMBL1201862, “PubChem BioAssay data set” (2004).
